Test [1] deals with genotype A, "Long" strain RSV. Put plainly: RSV-A assay (CPE protection in Hep-2 cells, ATPlite readout). Format: cell-based, Human respiratory syncytial virus (HRSV). The settings on record: human respiratory syncytial virus, genotype A “Long” strain RSV, MOI 0.1, CPE protection, read-out: Human RSV-A (“Long”). The method, boiled down: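 Hep-2, 8,000 cells/well, MOI 0.1 (PFU- or TCID50-based); 2-fold compound series, duplicates; 5 d incubation; ATPlite luminescence readout; EC50.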

The subject of test [2] is HMPV clinical isolate TN/1501/A1. Nature of the test: HMPV antiviral assay Method-B (clinical isolate TN/1501/A1 in LLC-MK2 cells, ATP-Lite readout). It counts as cell-based, Human metapneumovirus (HMPV). The settings on record: human metapneumovirus, LLC-MK2, 144 h, hMPV WT1501 (clinical isolate TN/1501/A1), 6 days. The method, boiled down:
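EC50 derived by four-parameter logistic fit of percent cell health, measured by ATP-Lite luminescence and normalised to virus-only and uninfected-cell controls. Compounds run in duplicate from 10 μM top, 3-fold, 10 points. Infection: LLC-MK2 cells, MOI 0.014, 2 μg/mL final TPCK-trypsin, serum-free, 6 days at 37° C.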

We go through 40 compounds from patent US12612412B2, “Antiviral heterocyclic compounds” (Enanta Pharmaceuticals, Inc., priority 2021, dated 2026).

SMILES strings stand for the structures.

Consider `COc1cc(C(=O)NC[C@](O)(c2cc3c(c(-c4cccc(F)c4Cl)n2)OC[C@]3(C)C(N)=O)C(F)(F)F)cc2cn(C3CC3)nc12` [Example 761], for which the EC50 in test [1] was < 200 nM; in test [2], < 500 nM.
For `COc1cc(C(=O)NC[C@](O)(c2cc3c(c(-c4ccc(F)cc4)n2)OC[C@]3(C)C(N)=O)C2CC2)cc2cc(C)nnc12` [Example 762], the EC50 was < 200 nM in test [1] and < 500 nM in test [2].
Taken in the same sequence, the figures for `COc1cc(C(=O)NC[C@](O)(c2cc3c(c(-c4ccc(F)cc4)n2)OC[C@]3(C)C(N)=O)C2CC2)cc2cc(C3CC3)nnc12` [Example 763] were < 200 nM and < 500 nM.
As to `COc1cc(C(=O)NC[C@](O)(c2cc3c(c(-c4ccc5c(c4)OC(F)(F)O5)n2)OC[C@]3(C)C(N)=O)C(F)(F)F)cc2cc(C)nnc12` [Example 764], the EC50 in test [1] was < 200 nM; in test [2], < 500 nM.
As for `COc1cc(C(=O)NC[C@](O)(c2cc3c(c(-c4ccc5c(c4)OC(F)(F)O5)n2)OC[C@]3(C)C(N)=O)C(F)(F)F)cc2cc(C3CC3)nnc12` [Example 765], the EC50 in test [1] is < 200 nM; in test [2] it was < 500 nM.
Taken in the same sequence, the figures for `COc1cc(C(=O)NC[C@](O)(c2cc3c(c(-c4cc(Cl)c(F)cc4F)n2)OC[C@]3(C)C(N)=O)C2(F)CC2)cc2cn(C(F)F)nc12` [Example 766] were < 200 nM and < 500 nM.
Taken in the same sequence, the figures for `COc1cc(C(=O)NC[C@](O)(c2cc3c(c(-c4cc(Cl)c(F)cc4F)n2)OC[C@]3(C)C(N)=O)C2(F)CC2)cc2cc(Br)cnc12` [Example 767] were < 200 nM and < 500 nM.
Consider `COc1cc(C(=O)NC[C@](O)(c2cc3c(c(-c4ccc(F)c(Cl)c4F)n2)OC[C@]3(C)C(N)=O)C2(F)CC2)cc2cc(Br)cnc12` [Example 768], for which the EC50 in test [1] was < 200 nM; in test [2] it was < 500 nM.
Taken in the same sequence, the figures for `Cc1cnc2c(Nc3cnccn3)cc(C(=O)NC[C@](O)(c3cc4c(c(-c5ccc6c(c5)OC(F)(F)O6)n3)OC[C@]4(C)C(N)=O)C3CC3)cc2c1` [Example 773] were < 200 nM and < 500 nM.
Take `COc1cc(C(=O)NC[C@](O)(c2cc3c(c(-c4ccc(F)c(F)c4Cl)n2)OC[C@]3(C)C(N)=O)C(F)(F)F)cc2cc(Cl)c(C)nc12` [Example 774]: the values for the EC50 in test [1] and in test [2] were < 200 nM and < 500 nM, respectively.
Taken in the same sequence, the figures for `COc1cc(C(=O)NC[C@](O)(c2cc3c(c(-c4ccc(F)c(F)c4Cl)n2)OC[C@]3(C)C(N)=O)C(F)(F)F)cc2cn(C3(F)CC3)nc12` [Example 775] were < 200 nM and < 500 nM.
`COc1cc(C(=O)NC[C@](O)(c2cc3c(c(-c4ccc(F)c(F)c4Cl)n2)OC[C@]3(C)C(N)=O)C(F)(F)F)cc2cn(C(F)F)nc12` [Example 776]: the EC50 is < 200 nM in test [1] and < 500 nM in test [2].
Taken in the same sequence, the figures for `Cc1nc2c(OC3CC3)cc(C(=O)NC[C@](O)(c3cc4c(c(-c5ccc(F)c(F)c5Cl)n3)OC[C@]4(C)C(N)=O)C(F)(F)F)cc2cc1Cl` [Example 777] were < 200 nM and < 500 nM.
In the case of `COc1cc(C(=O)NC[C@](O)(c2cc3c(c(-c4ccc(F)c(F)c4Cl)n2)OC[C@]3(C)C(N)=O)C(F)(F)F)cc2cc(Br)cnc12` [Example 778], the EC50 in test [1] was < 200 nM; in test [2], < 500 nM.
Taken in the same sequence, the figures for `Cc1cnc2c(Cl)cc(C(=O)NC[C@](O)(c3cc4c(c(-c5ccc(F)c(F)c5Cl)n3)OC[C@]4(C)C(N)=O)C(F)(F)F)cc2c1` [Example 779] were < 200 nM and < 500 nM.
With `C[C@]1(C(N)=O)COc2c1cc([C@@](O)(CNC(=O)c1cc(Cl)c3nn(C4CC4)cc3c1)C(F)(F)F)nc2-c1ccc(F)c(F)c1Cl` [Example 780], the results for the EC50 in test [1] and in test [2] were < 200 nM and < 500 nM, respectively.
Taken in the same sequence, the figures for `Cc1cnc2c(OC(F)F)cc(C(=O)NC[C@](O)(c3cc4c(c(-c5ccc(F)c(F)c5Cl)n3)OC[C@]4(C)C(N)=O)C(F)(F)F)cc2c1` [Example 781] were < 200 nM and < 500 nM.
Take `COc1cc(C(=O)NC[C@](O)(c2cc3c(c(-c4cc(F)c(F)c(Cl)c4)n2)OC[C@]3(C)C(N)=O)C(F)(F)F)cc2cn(C3CC3)nc12` [Example 782]: the EC50 in test [1] was < 200 nM; in test [2] it was < 500 nM.
Take `COc1cc(C(=O)NC[C@](O)(c2cc3c(c(-c4cc(F)c(F)c(Cl)c4)n2)OC[C@]3(C)C(N)=O)C(F)(F)F)cc2cn(C(F)F)nc12` [Example 783]: the EC50 in test [1] is < 200 nM; in test [2], < 500 nM.
Taken in the same sequence, the figures for `COc1cc(C(=O)NC[C@](O)(c2cc3c(c(-c4cc(F)c(F)c(Cl)c4)n2)OC[C@]3(C)C(N)=O)C(F)(F)F)cc2cc(Cl)c(C)nc12` [Example 784] were < 200 nM and < 500 nM.
Consider `COc1cc(C(=O)NC[C@](O)(c2cc3c(c(-c4cc(F)c(F)c(Cl)c4)n2)OC[C@]3(C)C(N)=O)C(F)(F)F)cc2cc(Br)cnc12` [Example 785], for which the EC50 in test [1] is < 200 nM; in test [2], < 500 nM.
On to `COc1cc(C(=O)NC[C@](O)(c2cc3c(c(-c4cc(F)c(F)c(Cl)c4)n2)OC[C@]3(C)C(N)=O)C2CC2)cc2cc(Cl)c(C)nc12` [Example 786], for which the EC50 in test [1] was < 200 nM; in test [2], < 500 nM.
On to `COc1cc(C(=O)NC[C@](O)(c2cc3c(c(-c4cc(F)c(F)c(Cl)c4)n2)OC[C@]3(C)C(N)=O)C2CC2)cc2cn(C3CC3)nc12` [Example 787], for which the results for the EC50 in test [1] and in test [2] were < 200 nM and < 500 nM, respectively.
Taken in the same sequence, the figures for `COc1cc(C(=O)NC[C@](O)(c2cc3c(c(-c4cc(F)c(F)c(Cl)c4)n2)OC[C@]3(C)C(N)=O)C2CC2)cc2cn(C(F)F)nc12` [Example 788] were < 200 nM and < 500 nM.
`COc1cc(C(=O)NC[C@](O)(c2cc3c(c(-c4cc(F)c(F)c(Cl)c4)n2)OC[C@]3(C)C(N)=O)C2CC2)cc2cc(Br)cnc12` [Example 789]: the figures for the EC50 in test [1] and in test [2] were < 200 nM and < 500 nM, respectively.
`C[C@]1(C(N)=O)COc2c1cc([C@@](O)(CNC(=O)c1cc(Cl)c3nn(C4CC4)cc3c1)C1CC1)nc2-c1cc(F)c(F)c(Cl)c1` [Example 790]: the values for the EC50 in test [1] and in test [2] were < 200 nM and < 500 nM, respectively.
Taken in the same sequence, the figures for `COc1cc(C(=O)NC[C@](O)(c2cc3c(c(-c4cc(F)c(F)c(Cl)c4)n2)OC[C@]3(C)C(N)=O)C2CC2)cc2cn(C3(F)CC3)nc12` [Example 791] were < 200 nM and < 500 nM.
Turning to `Cc1cnc2c(Cl)cc(C(=O)NC[C@](O)(c3cc4c(c(-c5cc(F)c(F)c(Cl)c5)n3)OC[C@]4(C)C(N)=O)C3CC3)cc2c1` [Example 792], the EC50 in test [1] is < 200 nM; in test [2], < 500 nM.
Turning to `COc1cc(C(=O)NC[C@](O)(c2cc3c(c(-c4ccc(C(F)(F)F)cc4)n2)OC[C@]3(C)C(N)=O)C2CC2)cc2cn(C3CC3)nc12` [Example 793], the EC50 was < 200 nM in test [1] and < 500 nM in test [2].
In the case of `COc1cc(C(=O)NC[C@](O)(c2cc3c(c(-c4ccc(C(F)(F)F)cc4)n2)OC[C@]3(C)C(N)=O)C2CC2)cc2cn(C3(F)CC3)nc12` [Example 794], the results for the EC50 in test [1] and in test [2] were < 200 nM and < 500 nM, respectively.
Turning to `C[C@]1(C(N)=O)COc2c1cc([C@@](O)(CNC(=O)c1cc(Cl)c3nn(C4CC4)cc3c1)C1CC1)nc2-c1ccc(C(F)(F)F)cc1` [Example 795], the EC50 was < 200 nM in test [1] and > 500 nM in test [2].
`COc1cc(C(=O)NC[C@](O)(c2cc3c(c(-c4ccc(C(F)(F)F)cc4)n2)OC[C@]3(C)C(N)=O)C2CC2)cc2cn(C(F)F)nc12` [Example 796]: the EC50 is < 200 nM in test [1] and < 500 nM in test [2].
In the case of `Cc1cnc2c(Cl)cc(C(=O)NC[C@](O)(c3cc4c(c(-c5ccc(C(F)(F)F)cc5)n3)OC[C@]4(C)C(N)=O)C3CC3)cc2c1` [Example 798], the EC50 in test [1] is < 200 nM; in test [2], < 500 nM.
As for `COc1cc(C(=O)NC[C@](O)(c2cc3c(c(-c4ccc(F)c(Br)c4F)n2)OC[C@]3(C)C(N)=O)C2CC2)cc2cn(C3CC3)nc12` [Example 799], the EC50 in test [1] is < 200 nM; in test [2] it was < 500 nM.
Regarding `C[C@]1(C(N)=O)COc2c1cc([C@@](O)(CNC(=O)c1cc(Cl)c3nn(C4CC4)cc3c1)C1CC1)nc2-c1ccc(F)c(Br)c1F` [Example 800], the EC50 in test [1] is < 200 nM; in test [2], < 500 nM.
Taken in the same sequence, the figures for `COc1cc(C(=O)NC[C@](O)(c2cc3c(c(-c4ccc(F)c(Br)c4F)n2)OC[C@]3(C)C(N)=O)C2CC2)cc2cn(C(F)F)nc12` [Example 801] were < 200 nM and < 500 nM.
Taken in the same sequence, the figures for `COc1cc(C(=O)NC[C@](O)(c2cc3c(c(-c4ccc(F)c(Br)c4F)n2)OC[C@]3(C)C(N)=O)C2CC2)cc2cn(C3(F)CC3)nc12` [Example 802] were < 200 nM and < 500 nM.
As to `COc1cc(C(=O)NC[C@](O)(c2cc3c(c(-c4ccc(F)c(Cl)c4)n2)OC[C@]3(C)C(N)=O)C2CC2)ccc1OC1CC1` [Example 811], the EC50 is < 200 nM in test [1] and < 500 nM in test [2].
Taken in the same sequence, the figures for `C[C@]1(C(N)=O)COc2c1cc([C@@](O)(CNC(=O)c1ccc3nn(C4CC4)cc3c1)C1CC1)nc2-c1ccc(F)c(Cl)c1` [Example 815] were < 200 nM and < 500 nM.
For the compound `COc1cc(C(=O)NC[C@](O)(c2cc3c(c(-c4ccc5c(c4)OC(F)(F)O5)n2)OC[C@]3(C)C(N)=O)C2CC2)cc2cn(C3CC3)nc12` [Example 816], the EC50 in test [1] was < 200 nM; in test [2] it was < 500 nM.
